Measurements taken from patent US20250127906A1, “SMALL-MOLECULE DEGRADERS OF CDK8 AND CDK19” (University of South Carolina, priority 2021, published 2025).

Key:
CDK8 [1] = molecular target: T1, CDK8 (Canis lupus familiaris, UniProt A0A8I3PYQ8); assay: CDK8 degradation in canine Abrams osteosarcoma cells; format: cell-based
T1 construct: endogenous in cells; host or cells: Abrams (canine osteosarcoma)
T1 sequence (A0A8I3PYQ8 1-464): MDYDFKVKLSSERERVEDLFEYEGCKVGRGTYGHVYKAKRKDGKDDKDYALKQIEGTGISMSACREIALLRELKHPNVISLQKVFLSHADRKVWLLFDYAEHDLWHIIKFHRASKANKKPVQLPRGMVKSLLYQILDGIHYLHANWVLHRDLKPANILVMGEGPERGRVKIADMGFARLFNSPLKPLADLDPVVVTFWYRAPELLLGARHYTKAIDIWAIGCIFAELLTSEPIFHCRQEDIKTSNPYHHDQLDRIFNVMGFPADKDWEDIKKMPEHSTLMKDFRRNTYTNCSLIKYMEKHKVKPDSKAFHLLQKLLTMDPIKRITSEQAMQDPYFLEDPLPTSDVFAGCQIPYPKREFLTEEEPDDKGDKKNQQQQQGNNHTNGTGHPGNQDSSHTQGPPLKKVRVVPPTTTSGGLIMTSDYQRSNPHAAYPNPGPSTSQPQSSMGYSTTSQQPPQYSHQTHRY
Text: (§1) Both the extent and the kinetics of CDK8 degradation were similar between two cell lines, with the degradation reaching maximum at about 8 hrs of PROTAC treatment.

CDK19 [2] = molecular target: T2, CDK19 (Canis lupus familiaris, UniProt A0A8I3NZB9); assay: CDK19 degradation in canine Abrams osteosarcoma cells; format: cell-based
T2 construct: endogenous in cells; host or cells: Abrams (canine osteosarcoma)
T2 sequence (A0A8I3NZB9 1-502): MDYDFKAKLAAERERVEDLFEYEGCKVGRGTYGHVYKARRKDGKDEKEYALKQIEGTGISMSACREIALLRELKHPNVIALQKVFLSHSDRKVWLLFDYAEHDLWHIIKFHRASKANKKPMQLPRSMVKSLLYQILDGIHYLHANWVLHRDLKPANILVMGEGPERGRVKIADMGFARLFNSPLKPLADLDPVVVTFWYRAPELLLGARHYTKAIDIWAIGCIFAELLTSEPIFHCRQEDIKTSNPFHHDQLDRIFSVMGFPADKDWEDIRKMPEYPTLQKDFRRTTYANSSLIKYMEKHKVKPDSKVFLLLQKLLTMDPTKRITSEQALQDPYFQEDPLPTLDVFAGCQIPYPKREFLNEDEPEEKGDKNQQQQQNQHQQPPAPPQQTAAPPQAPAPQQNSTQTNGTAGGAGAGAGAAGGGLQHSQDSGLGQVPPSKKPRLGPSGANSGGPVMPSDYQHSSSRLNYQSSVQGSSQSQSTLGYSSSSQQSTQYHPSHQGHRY
Text: as §1

Jurkat cells = assay: Long-term growth of Jurkat cells under continuous treatment; format: cell-based, human; conditions: 300 nM continuous
Procedure: The anti-proliferative effects of a PROTAC and a kinase inhibitor were compared in leukemia cell lines. In the long-term treatment experiment shown in FIG. 11A, Jurkat cells (0.1 million cells) were continuously treated with vehicle control (0.1% DMSO), 300 nM BI-1347 or 300 nM IA7886 for 53 days (each condition in biological triplicates). Every 7-8 days, live cells were counted using BioRAD TC20 Automated Cell Counter with trypan blue staining: 0.1 million live cells were passaged to a new T25 flask to propagate under the same treatment conditions. The survival fraction was calculated by dividing the accumulated number of drug-treated cells with the accumulated number of vehicle-treated cells. […] This sustained inhibition property of PROTAC was also observed in MV4-11, a leukemia cell line highly sensitive to CDK8/19 kinase inhibitors.

[3] = Serum drug concentrations in CD-1 mice (LCMSMS); format: in vivo; conditions: female CD-1 mice, i.p. 15 mg/kg, 15 min and 1 hr
Procedure: For preliminary evaluation of the bioavailability of the PROTACs, IA7882 and IA7886 were administered to female CD-1 mice via intraperitoneal (i.p.) injection at the dose of 15 mg/kg. Drug concentrations were measured by LCMSMS analysis of serum samples collected at 15 min and 1 hr time point.

CDK19 [4] = molecular target: T3, CDK19 (Homo sapiens, UniProt Q9BWU1); assay: CDK19 degradation in HEK-293 cells (Western blot); format: cell-based; set-up: PROTACs on CDK8 and CDK19 degradation in HEK-293cells; endogenous in cells; host or cells: HEK-293; conditions: concentration degrading CDK19 to half of level in untreated cells
Text: Furthermore, the degradation of both CDK8 and CDK19 by the PROTACs is also seen to decrease the levels of their binding partner cyclin C (CCNC) (FIG. 2B, D, E), which is known to be protected from proteolytic degradation by its interaction with CDK8 (Barette et al., 2001).
FIGS. 2F and 2G show the effects of different concentrations of potent Senexin C- and BI-1347-based PROTACs on CDK8 and CDK19 degradation in HEK-293cells. Based on these assays, we calculated DC50 values that correspond to PROTAC concentrations inducing degradation of CDK8 and CDK19 to the half of protein level in untreated cells. The corresponding CDK8 DC50 values were 46 nM for IA7843, 6.6 nM for IA7882 and 2.8 nM for IA7886, and CDK19 DC50 values were 1 μM for IA7843, 25 nM for IA7882 and 10 nM for IA7886.
Target sequence in this assay (Q9BWU1 whole entry): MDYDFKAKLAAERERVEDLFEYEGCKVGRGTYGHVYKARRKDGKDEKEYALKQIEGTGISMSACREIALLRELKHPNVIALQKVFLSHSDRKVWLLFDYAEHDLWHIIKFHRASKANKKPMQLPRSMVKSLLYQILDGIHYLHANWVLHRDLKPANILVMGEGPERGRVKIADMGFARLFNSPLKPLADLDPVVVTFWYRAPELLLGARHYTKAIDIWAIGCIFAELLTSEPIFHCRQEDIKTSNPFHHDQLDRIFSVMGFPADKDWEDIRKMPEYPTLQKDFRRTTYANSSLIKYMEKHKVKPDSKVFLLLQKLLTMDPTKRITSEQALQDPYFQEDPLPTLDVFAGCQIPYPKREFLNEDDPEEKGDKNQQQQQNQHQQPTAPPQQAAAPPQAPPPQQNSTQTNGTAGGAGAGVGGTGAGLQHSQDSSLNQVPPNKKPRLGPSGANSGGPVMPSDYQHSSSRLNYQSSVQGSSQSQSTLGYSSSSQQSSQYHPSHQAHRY
Target sequence in this assay (P24863 whole entry partner): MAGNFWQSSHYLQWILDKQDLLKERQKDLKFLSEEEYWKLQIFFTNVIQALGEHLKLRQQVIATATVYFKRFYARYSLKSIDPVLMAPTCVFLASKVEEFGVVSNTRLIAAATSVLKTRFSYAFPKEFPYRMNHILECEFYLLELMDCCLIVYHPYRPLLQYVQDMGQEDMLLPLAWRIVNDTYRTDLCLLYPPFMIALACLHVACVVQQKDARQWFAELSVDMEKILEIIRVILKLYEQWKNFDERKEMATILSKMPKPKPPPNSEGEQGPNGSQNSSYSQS

CDK8 [5] = molecular target: CDK8 (Homo sapiens, UniProt P49336); assay: CDK8 degradation in HEK-293 cells with CRISPR knockout of CCNC; format: cell-based; set-up: a derivative of HEK-293cells with CRISPR-mediated knockout of CCNC; endogenous in cells; host or cells: HEK-293 with CRISPR knockout of CCNC; conditions: HEK-293 CCNC-knockout cells, 24 hr treatment
Text: (§2) This cell line, however, is unique in lacking Cyclin C (CCNC), the binding partner of CDK8/19. To test if the absence of CDK8-bound CCNC was responsible for the loss of IA7843 CDK8-degrading activity, we have tested the effect of IA7843 on a derivative of HEK-293cells with CRISPR-mediated knockout of CCNC.

CDK19 [6] = molecular target: T3, CDK19; assay: CDK19 degradation in HEK-293 cells with CRISPR knockout of CCNC; format: cell-based; set-up: a derivative of HEK-293cells with CRISPR-mediated knockout of CCNC; endogenous in cells; host or cells: HEK-293 with CRISPR knockout of CCNC; conditions: HEK-293 CCNC-knockout cells, 24 hr treatment
Text: as §2
Target sequence in this assay (Q9BWU1 whole entry): as the sequence (Q9BWU1 whole entry) above

Sequence of CDK8 (Homo sapiens, UniProt P49336) (P49336 whole entry): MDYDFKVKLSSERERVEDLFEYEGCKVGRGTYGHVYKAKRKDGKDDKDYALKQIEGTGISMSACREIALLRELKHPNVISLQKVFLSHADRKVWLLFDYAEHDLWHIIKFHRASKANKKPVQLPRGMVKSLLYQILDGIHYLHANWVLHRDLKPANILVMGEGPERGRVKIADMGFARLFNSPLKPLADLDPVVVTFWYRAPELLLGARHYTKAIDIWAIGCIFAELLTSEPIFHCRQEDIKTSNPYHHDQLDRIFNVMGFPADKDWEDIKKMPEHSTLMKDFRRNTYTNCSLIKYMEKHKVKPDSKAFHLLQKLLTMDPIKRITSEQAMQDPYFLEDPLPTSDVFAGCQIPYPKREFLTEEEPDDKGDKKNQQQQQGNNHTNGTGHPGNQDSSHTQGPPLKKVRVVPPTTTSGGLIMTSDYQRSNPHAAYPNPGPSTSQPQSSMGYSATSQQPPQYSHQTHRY

DC50 (CDK19 [4]): 10 nM | CDK8 degradation (in words) (CDK8 [5]): efficiently degraded CDK8 and CDK19 | CDK19 degradation (in words) (CDK19 [6]): efficiently degraded CDK8 and CDK19
Compound: O=C(CCCNc1cccc2c1C(=O)N(C1CCC(=O)NC1=O)C2=O)NCCCCCCCCCCC(=O)N1CCN(C(=O)Cn2cc(-c3ccc(-c4cncc5ccccc45)cc3)cn2)CC1 (centres unmarked) [IA7886, 4-[[2-(2,6-dioxo-3-piperidyl)-1,3-dioxo-isoindolin-4-yl]amino]-N-[11-[4-[2-[4-[4-(4-isoquinolyl)phenyl]pyrazol-1-yl]acetyl]piperazin-1-yl]-11-oxo-undecyl]butanamide]
CDK8 degradation (in words) (CDK8 [1]): induce CDK8 degradation in both cell lines | CDK19 degradation (in words) (CDK19 [2]): induced CDK19 degradation in Abrams cells | growth inhibition, first two passages (14 days) (Jurkat cells): had a stronger growth inhibition effect than the PROTAC IA7886 | growth rates in later passages (Jurkat cells; up to 53 days): growth rates of IA-7886 treated cells were decreasing | serum drug concentrations [3]: readily measurable and were higher for IA7882 than for IA7886
